Drawing on patent US12071414B2, “Apelin receptor agonists and methods of use thereof” (Sanford Burnham Prebys Medical Discovery Institute, priority 2015, dated 2024), this text covers EC50 for 69 compounds.

The assay has as its target T1, human apelin receptor (APJ, AGTRL-one, APLNR) (Homo sapiens, UniProt P35414).
T1 construct: host or cells: Chinese hamster ovary cells, stably integrated receptor
T1 sequence (P35414 1-380): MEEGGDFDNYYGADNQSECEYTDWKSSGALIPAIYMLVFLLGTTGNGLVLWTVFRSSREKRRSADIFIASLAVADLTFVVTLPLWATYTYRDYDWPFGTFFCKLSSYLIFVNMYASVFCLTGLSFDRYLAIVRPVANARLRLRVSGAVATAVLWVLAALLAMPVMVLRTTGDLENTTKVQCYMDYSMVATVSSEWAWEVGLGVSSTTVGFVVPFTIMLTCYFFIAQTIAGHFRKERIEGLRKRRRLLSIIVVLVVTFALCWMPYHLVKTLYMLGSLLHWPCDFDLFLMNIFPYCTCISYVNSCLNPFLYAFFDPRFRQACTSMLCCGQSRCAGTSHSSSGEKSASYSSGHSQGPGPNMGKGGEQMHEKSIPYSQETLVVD
Kind of assay: cell-based cAMP TR-FRET assay of apelin receptor activation. As to conditions: CHO cells expressing human APJ, forskolin-stimulated cAMP, 0.5 h incubation, 50% of control (apelin-13, 1 nM) response; read-out: Potency Category (EC50). In outline: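 CHO cells stably expressing human APJ were stimulated to raise cAMP, then incubated 0.5 h with compound (0.0-100 μM, ≤1% DMSO). Lysed cAMP measured by competitive TR-FRET immunoassay; efficacy as % of 1 nM apelin-13 response, potency from four-point logistic fit over ≥10 concentrations.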
A general note: Time-resolved FRET reads energy transfer from a long-lived donor to a nearby acceptor.
In the case of `CCS(=O)(=O)c1ccc(C(OCc2ccc(C#N)cc2)C(=O)Nc2nc3cc(OC)c(OC)cc3s2)cc1` (stereo not drawn), the EC50 was greater than 500 nM.
For `COc1cc2nc(NC(=O)C(Oc3ccc(C#N)cc3)c3ccc(C(=O)NCCO)cc3)sc2cc1OC` (stereo not drawn) the value was 50 to 100 nM.
As to `CCS(=O)(=O)c1ccc(C(Oc2ccc(C#N)cc2)C(=O)Nc2nc3cc(Cl)c(OC)cc3s2)cc1` (stereo not drawn), the EC50 fell in the range of 200 to 500 nM.
The figure for `CCS(=O)(=O)c1ccc(CC(=O)Nc2nc3cc4c(cc3s2)OCCO4)cc1` is greater than 500 nM; for `CCCOC(C(=O)Nc1nc2cc(OC)c(OC)cc2s1)c1ccc(S(=O)(=O)CC)cc1` (stereo not drawn) it is greater than 500 nM.
On to `COc1cc2nc(NC(=O)C(Oc3ccc(C(=O)N4CCN(C)CC4)cc3)c3ccc(C#N)cc3)sc2cc1OC` (stereo not drawn), for which the concentration for a half-maximal effect (EC50) is 50 to 100 nM.
The figure for `CCS(=O)(=O)c1ccc(C(Oc2ccc(C#N)cc2)C(=O)Nc2nc3ncc(OC)cc3s2)cc1` (stereo not drawn) is greater than 500 nM.
The figure for `COc1cc2nc(NC(=O)C(Oc3ccc(OCCN(C)C)cc3)c3ccc(C#N)cc3)sc2cc1OC` (stereo not drawn) is 100 to 200 nM; for `COc1cc2nc(NC(=O)Cc3ccc(S(=O)(=O)CC4CC4)cc3)sc2cc1OC` it is greater than 500 nM.
As for `C#Cc1ccc(OC(C(=O)Nc2nc3cc(OC)c(OC)cc3s2)c2ccc(S(=O)(=O)CC)cc2)cc1` (stereo not drawn), the EC50 was in the range of 100 to 200 nM.
The figure for `CCS(=O)(=O)c1ccc(C(OCC(C)C)C(=O)Nc2nc3cc(OC)c(OC)cc3s2)cc1` (stereo not drawn) is greater than 500 nM; for `CCS(=O)(=O)c1ccc(C(Oc2ccc(C#N)cc2)C(=O)Nc2nc3cc(OC(C)C)c(OC)cc3s2)cc1` (stereo not drawn) it is 200 to 500 nM; for `COc1ccc(S(=O)(=O)c2cccc(C(Oc3ccc(C#N)cc3)C(=O)Nc3nc4cc(OC)c(OC)cc4s3)c2)cc1` (stereo not drawn) it is greater than 500 nM.
The figure for `COc1ccc(C(Oc2ccc(C#N)cc2)C(=O)Nc2nc3cc(OC)c(OC)cc3s2)cc1` (stereo not drawn) is less than 50 nM.
For `CCS(=O)(=O)c1ccc(C(Oc2ccc(C#N)cc2)C(=O)Nc2nc3cc(OCC4CC4)c(OC)cc3s2)cc1` (stereo not drawn) the value was greater than 500 nM; for `COc1cc2nc(NC(=O)C(Oc3ccc(C#N)cc3)c3ccc(-c4nnn[nH]4)cc3)sc2cc1OC` (stereo not drawn), greater than 500 nM; for `CCS(=O)(=O)c1ccc(C(Oc2ccc3ccccc3c2)C(=O)Nc2nc3cc(OC)c(OC)cc3s2)cc1` (stereo not drawn), greater than 500 nM.
In the case of `CCS(=O)(=O)c1ccc(C(Oc2ccc(C#N)cc2)C(=O)Nc2nc3cc4c(cc3s2)OCO4)cc1` (stereo not drawn), the EC50 is greater than 500 nM.
The figure for `COc1cc2nc(NC(=O)C(Oc3ccc(C#N)cc3)c3ccc(C(=O)NCCN4CCOCC4)cc3)sc2cc1OC` (stereo not drawn) is 100 to 200 nM.
The figure for `CCS(=O)(=O)c1ccc(CC(=O)Nc2nc3cc(OC)c(OC)cc3o2)cc1` is greater than 500 nM; for `COCCNC(=O)c1ccc(C(Oc2ccc(C#N)cc2)C(=O)Nc2nc3cc(OC)c(OC)cc3s2)cc1` (stereo not drawn) it is 50 to 100 nM; for `CCS(=O)(=O)c1ccc(C(Oc2ccc(C#N)cc2)C(=O)Nc2nc3ccc(OCCO)cc3s2)cc1` (stereo not drawn) it is greater than 500 nM.
The figure for `COc1cc2nc(NC(=O)C(Oc3ccc(C(=O)NCCO)cc3)c3ccc(C#N)cc3)sc2cc1OC` (stereo not drawn) is 200 to 500 nM.
For `CCS(=O)(=O)c1ccc(C(Oc2ccc(OC)cc2)C(=O)Nc2nc3cc(OC)c(OC)cc3s2)cc1` (stereo not drawn), the EC50 is greater than 500 nM.
For `CCS(=O)(=O)c1ccc(C(Oc2ccc(C#N)cc2)C(=O)Nc2nc3cc(OC)ccc3s2)cc1` (stereo not drawn) the value was greater than 500 nM; for `COc1cc2nc(NC(=O)C(Oc3ccc(C#N)cc3)c3ccc(C)cc3)sc2cc1OC` (stereo not drawn), 50 to 100 nM; for `COc1cc2nc(NC(=O)C(Oc3ccc(C#N)cc3)c3ccc(OCCN4CCOCC4)cc3)sc2cc1OC` (stereo not drawn), 200 to 500 nM.
For `CCCCS(=O)(=O)c1ccc(C(Oc2ccc(C#N)cc2)C(=O)Nc2nc3cc(OC)c(OC)cc3s2)cc1` (stereo not drawn) the value was less than 50 nM; for `CCS(=O)(=O)c1ccc(C(Oc2ccc(C#N)cc2)C(=O)Nc2nc3c4c(ccc3s2)OCCO4)cc1` (stereo not drawn), greater than 500 nM.
The figure for `CCS(=O)(=O)c1ccc(C(C(=O)Nc2nc3cc(OC)c(OC)cc3s2)C2CCCC2)cc1` (stereo not drawn) is greater than 500 nM.
On to `CCCc1ccc(OC(C(=O)Nc2nc3cc(OC)c(OC)cc3s2)c2ccc(S(=O)(=O)CC)cc2)cc1` (stereo not drawn), for which the EC50 was in the range of 200 to 500 nM.
The figure for `CCS(=O)(=O)c1ccc(C(Oc2ccc(C#N)cc2)C(=O)Nc2nc3nc(OCCOC)c(OC)cc3s2)cc1` (stereo not drawn) is greater than 500 nM; for `CCS(=O)(=O)c1ccc(C(Oc2ccccc2C)C(=O)Nc2nc3cc(OC)c(OC)cc3s2)cc1` (stereo not drawn) it is greater than 500 nM.
The figure for `CCS(=O)(=O)c1ccc(C(Oc2ccc(C#N)cc2)C(=O)Nc2nc3cc(OCCN(C)C)c(OC)cc3s2)cc1` (stereo not drawn) is greater than 500 nM; for `COc1cc2nc(NC(=O)Cc3cccc(S(=O)(=O)CC4CC4)c3)sc2cc1OC` it is greater than 500 nM.
For the compound `CCS(=O)(=O)c1ccc(C(Oc2ccc(C#N)cc2)C(=O)Nc2nc3ccc(OCCN4CCN(C)CC4)cc3s2)cc1` (stereo not drawn), the EC50 is greater than 500 nM.
The figure for `CCCCOc1ccc(OC(C(=O)Nc2nc3cc(OC)c(OC)cc3s2)c2ccc(S(=O)(=O)CC)cc2)cc1` (stereo not drawn) is greater than 500 nM; for `COCCOc1ccc(OC(C(=O)Nc2nc3cc(OC)c(OC)cc3s2)c2ccc(C#N)cc2)cc1` (stereo not drawn) it is 50 to 100 nM; for `COc1cc2nc(NC(=O)C(Oc3ccc(C#N)cc3)c3ccc(C(=O)N4CCN(C)CC4)cc3)oc2cc1OC` (stereo not drawn) it is less than 50 nM.
The figure for `CCS(=O)(=O)c1ccc(C(Oc2ccc(C#N)cc2)C(=O)Nc2nc3ccc(OC)c(OC)c3s2)cc1` (stereo not drawn) is 50 to 100 nM.
The figure for `CCS(=O)(=O)c1ccc(CC(=O)Nc2nc3cc(OC)c(OC)cc3s2)cc1` is 200 to 500 nM; for `COc1cc2nc(NC(=O)Cc3ccc(S(=O)(=O)C(C)C)cc3)sc2cc1OC` it is greater than 500 nM.
Take `CCS(=O)(=O)c1ccc(C(Oc2cccc3ccccc23)C(=O)Nc2nc3cc(OC)c(OC)cc3s2)cc1` (stereo not drawn): the concentration for a half-maximal effect (EC50) is greater than 500 nM.
For `CCS(=O)(=O)c1ccc([C@@H](Oc2ccc(C#N)cc2)C(=O)Nc2nc3cc(OC)c(OC)cc3s2)cc1` the value was 100 to 200 nM; for `COc1cc2nc(NC(=O)Cc3cccc(S(=O)(=O)c4ccc(F)cc4)c3)sc2cc1OC`, greater than 500 nM.
Take `CCS(=O)(=O)c1ccc(C(Oc2ccc(C#N)cc2)C(=O)Nc2nc3ccc(N4CCN(C)CC4)cc3s2)cc1` (stereo not drawn): the EC50 is greater than 500 nM.
The figure for `CCS(=O)(=O)c1ccc(C(Oc2ccc([N+](=O)[O-])cc2)C(=O)Nc2nc3cc(OC)c(OC)cc3s2)cc1` (stereo not drawn) is less than 50 nM.
For `COc1cc2nc(NC(=O)C(Oc3ccc(OCCO)cc3)c3ccc(C#N)cc3)sc2cc1OC` (stereo not drawn) the value was less than 50 nM; for `CCS(=O)(=O)c1ccc(C(Oc2ccc(C#N)cc2)C(=O)Nc2nc3cc(F)c(OC)cc3s2)cc1` (stereo not drawn), greater than 500 nM.
As to `CCS(=O)(=O)c1ccc(C(NCC(C)C)C(=O)Nc2nc3cc(OC)c(OC)cc3s2)cc1` (stereo not drawn), the EC50 was greater than 500 nM.
With `CCN(CC)c1ccc2sc(NC(=O)C(Oc3ccc(C#N)cc3)c3ccc(S(=O)(=O)CC)cc3)nc2c1` (stereo not drawn), the EC50 is greater than 500 nM.
For `COc1cc2nc(NC(=O)C(Oc3ccc(C#N)cc3)c3ccc(C#N)cc3)sc2cc1OC` (stereo not drawn) the value was less than 50 nM; for `COc1cc2nc(NC(=O)C(Oc3ccc(C#N)cc3)c3ccc(S(=O)(=O)CC4CC4)cc3)sc2cc1OC` (stereo not drawn), less than 50 nM; for `CCS(=O)(=O)c1ccc(C(Oc2ccc(C3CCCCC3)cc2)C(=O)Nc2nc3cc(OC)c(OC)cc3s2)cc1` (stereo not drawn), greater than 500 nM.
For `COc1cc2nc(NC(=O)C(Oc3ccc(C(=O)NCCN4CCOCC4)cc3)c3ccc(C#N)cc3)sc2cc1OC` (stereo not drawn) the value was 200 to 500 nM; for `CCS(=O)(=O)c1ccc(C(OC(C)C)C(=O)Nc2nc3cc(OC)c(OC)cc3s2)cc1` (stereo not drawn), greater than 500 nM.
For `COc1cc2nc(NC(=O)Cc3cccc(C(=O)N(C)C)c3)sc2cc1OC` the value was greater than 500 nM.
Consider `CCS(=O)(=O)c1ccc(C(Oc2ccccc2)C(=O)Nc2nc3cc(OC)c(OC)cc3s2)cc1` (stereo not drawn), for which the EC50 was greater than 500 nM.
For `COc1cc2nc(NC(=O)Cc3ccccc3C(=O)N(C)C)sc2cc1OC` the value was greater than 500 nM; for `COc1cc2nc(NC(=O)C(Oc3ccc(C#N)cc3)c3ccc(OCCN(C)C)cc3)sc2cc1OC` (stereo not drawn), less than 50 nM.
With `CCS(=O)(=O)c1ccc(C(OC2CCCC2)C(=O)Nc2nc3cc(OC)c(OC)cc3s2)cc1` (stereo not drawn), the EC50 was greater than 500 nM.
The figure for `CCS(=O)(=O)c1ccc(C(Oc2ccc(C#N)cc2)C(=O)Nc2nc3ccc(OCCN4CCOCC4)cc3s2)cc1` (stereo not drawn) is greater than 500 nM.
In the case of `CCS(=O)(=O)c1ccc(C(Oc2ccc(C#N)cc2)C(=O)Nc2nc3cc(OC)c(OC)cc3s2)cc1` (stereo not drawn), the EC50 is less than 50 nM.
The figure for `COc1cc2nc(NC(=O)C(Oc3ccc(C#N)cc3)c3ccc(S(=O)(=O)N(C)C)cc3)sc2cc1OC` (stereo not drawn) is less than 50 nM; for `CCS(=O)(=O)c1ccc(C(OCC2CCCCC2)C(=O)Nc2nc3cc(OC)c(OC)cc3s2)cc1` (stereo not drawn) it is greater than 500 nM; for `CCS(=O)(=O)c1ccc(C(Nc2ccc(C)cc2)C(=O)Nc2nc3cc(OC)c(OC)cc3s2)cc1` (stereo not drawn) it is greater than 500 nM.
For `COc1ccc(OC(C(=O)Nc2nc3cc(OC)c(OC)cc3s2)c2cccc(S(=O)(=O)c3ccc(F)cc3)c2)cc1` (stereo not drawn) the value was greater than 500 nM; for `CCS(=O)(=O)c1ccc(C(Oc2ccccc2I)C(=O)Nc2nc3cc(OC)c(OC)cc3s2)cc1` (stereo not drawn), 200 to 500 nM.
On to `CCS(=O)(=O)c1ccc(C(OCCc2ccccc2)C(=O)Nc2nc3cc(OC)c(OC)cc3s2)cc1` (stereo not drawn), for which the EC50 is greater than 500 nM.

What is called EC50 is the concentration at which the effect is half-maximal.
